From US8242058B2, “Reagents and methods for appending functional groups to proteins” (Wisconsin Alumni Research Foundation, priority 2006, dated 2012)

T1: Met(−1)RNase A-Gly-mxe intein thioester (UniProt P20533+P61823)
T1 construct: made in house; host or cells: E. coli BL21 (DE3), plasmid pJK01
T1 sequence (P61823+P20533 with tags, fused parts or gaps): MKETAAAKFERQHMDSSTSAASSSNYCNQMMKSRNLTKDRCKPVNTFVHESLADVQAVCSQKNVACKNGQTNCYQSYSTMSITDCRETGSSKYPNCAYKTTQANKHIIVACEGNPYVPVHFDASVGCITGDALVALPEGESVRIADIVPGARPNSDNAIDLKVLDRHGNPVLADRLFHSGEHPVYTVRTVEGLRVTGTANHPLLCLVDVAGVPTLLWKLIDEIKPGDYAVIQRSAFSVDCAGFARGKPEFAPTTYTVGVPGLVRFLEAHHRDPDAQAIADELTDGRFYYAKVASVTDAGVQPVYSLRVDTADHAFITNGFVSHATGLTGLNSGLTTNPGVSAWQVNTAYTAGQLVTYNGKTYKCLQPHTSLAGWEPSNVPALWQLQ

T2: ribonuclease inhibitor protein (RI) (Homo sapiens, UniProt P13489)
T2 sequence (P13489 2-461 limits assumed): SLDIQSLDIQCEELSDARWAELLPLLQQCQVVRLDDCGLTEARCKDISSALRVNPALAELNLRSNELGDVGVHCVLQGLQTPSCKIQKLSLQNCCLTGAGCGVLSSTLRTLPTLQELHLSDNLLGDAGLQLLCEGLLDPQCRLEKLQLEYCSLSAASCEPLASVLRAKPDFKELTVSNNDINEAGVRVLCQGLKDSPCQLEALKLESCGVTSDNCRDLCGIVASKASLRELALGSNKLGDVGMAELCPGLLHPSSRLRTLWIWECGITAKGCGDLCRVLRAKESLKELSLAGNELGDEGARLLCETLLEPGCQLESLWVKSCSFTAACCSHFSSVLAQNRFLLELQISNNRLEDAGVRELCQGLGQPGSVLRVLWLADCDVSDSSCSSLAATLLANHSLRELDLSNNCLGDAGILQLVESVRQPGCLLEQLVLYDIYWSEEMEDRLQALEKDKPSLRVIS

B1: wild-type RNase A: bovine pancreatic ribonuclease (RNase A), unmodified wild-type, Sigma Chemical (protein, UniProt P61823 27-150, looked up)
Ribonuclease pancreatic: KETAAAKFERQHMDSSTSAASSSNYCNQMMKSRNLTKDRCKPVNTFVHESLADVQAVCSQKNVACKNGQTNCYQSYSTMSITDCRETGSSKYPNCAYKTTQANKHIIVACEGNPYVPVHFDASV

Assays:
[1] = Kinetics of thioester cleavage (release of thiophenolate, absorbance at 410 nm); details: pH 7.0, 25° C.
Experimental: To identify the optimal nitrogen nucleophile for a thioester, kinetic studies were performed on a model chromogenic thioester: AcGlySC6H4-p-NO2. The rate of release of the thiophenolate anion was monitored by measuring the change in absorbance at 410 nm (Scheme 1). Nitrogen nucleophiles with conjugate-acid pKa values ranging from 4.6 to 10.6 (Table 1) were used in the experiments. The logarithmic values of the second-order rate constants (k2) of the unprotonated primary amines were plotted against the pKa values of their conjugate acids to yield the Brønsted plot shown in FIG. 2A. The data were fitted to the equation^[26]: log k2=log(AB)+(β+β′)pKa−log(A10^βpK^a+B10^β′pK^a) (1) In eq 1, A and B are constants, β′ is the slope of the former part of the Brønsted plot, and β is the slope of the latter part.
Kinetics of thioester cleavage: AcGlySC6H4-p-NO2 was dissolved in anhydrous acetonitrile to a concentration of 0.45 mM and used immediately. Amine solutions (except CF3CH2NH2.HCl) were prepared by dissolving the amine hydrochloride salts in 0.10 M sodium phosphate buffer at pH 7.0 to a concentration of 0.15 M. Reaction mixtures were prepared in a 1,1-mL volume and equilibrated at 25° C. All reactions contained […] acetonitrile. The ionic strength of each reaction mixture was I=0.22-0.25. All reactions were carried out with a large excess of amine and followed pseudo-first-order kinetics. In a cuvette containing 0.10 M sodium phosphate buffer at pH 7.0 (967 μL), amine solution (0.15 M, 100 μL) was added and the absorbance at 410 nm was adjusted to zero. The thioester (33 μL of a 0.45 mM solution in acetonitrile) was then added to the cuvette, and the absorbance at 410 nm was monitored with time (ε=11,230 M^−1cm^−1 for p-nitrothiophenolate anion). […] This value is likely to be lower in an aqueous buffer, such that the ionization of the p-nitrothiophenol product is virtually complete in all our assays. The final concentration of the thioester in the reaction was 13.64 μM and the final concentration of the amines (except CF3CH2NH2.HCl) was 13.64 mM. Each reaction was performed in triplicate. The reactions were allowed to go to completion, and the t1/2 was determined from the kinetic trace. The t1/2 was corrected by subtracting the t1/2 for hydrolysis from the observed value. Pseudo-first-order rate constants were calculated by using the equation k1=0.693/t1/2. Second-order rate constants were obtained by dividing each observed first-order rate constant by the concentration of free amine. Logarithmic values of second-order rate constants were plotted against the pKa values of the conjugate acids of the respective amines to yield a Brønsted plot.
Using a higher buffer concentration was not ideal, as that would increase the ionic strength to a much value much larger than that in other reaction mixtures. To overcome these problems, the reaction with CF3CH2NH2 was carried out using 40.92 mM CF3CH2NH2.HCl and allowing the pH of the reaction mixture to decrease to 5.8. The observed t12 was corrected by subtracting the t12 for hydrolysis at pH 5.8. The second-order rate constant was calculated by accounting for the concentration of free amine at pH 5.8, and the resulting value was used in the Brønsted plot. The first-order rate constant thus obtained was not compared to those for the other nucleophiles.

[2] = Storage stability of the reagent; assay type: physicochemical; details: TFA salt, storage under vacuum
Description: Azide 2 was synthesized by the route in Scheme 3. Briefly, 4-pentenoic acid was subjected to ozonolysis, and the resulting aldehyde was reacted in-situ with Boc-protected hydrazine. The azido group was installed by coupling 1-azido-2-aminoethane (4) to the carboxylic acid. The hydrazone was then reduced selectively with NaCNBH3. The Boc group was removed to produce azide 2 as its trifluoroacetic acid (TFA) salt with an overall yield of 26% (which includes the 80% yield for the synthesis of azide 3).

[3] = molecular target: T1, Met(−1)RNase A-Gly-mxe intein thioester; experiment: On-resin cleavage of the intein fusion protein thioester; details: on chitin resin
Description: Next, we sought to use our bifunctional reagents to install an azido group at the C terminus of a model protein. As our protein, we chose bovine pancreatic ribonuclease (RNase A), which has been the object of much seminal work in protein chemistry and has been manipulated previously with expressed protein ligation. RNase A has valine as its C-terminal residue. A valine residue at the C terminus of a target protein is known to have a debilitating effect on the cleavage efficiency of protein-intein thioesters. To avert this problem, we inserted a glycine residue between the C terminus of RNase A and the intein. The resulting Met(−1)RNase A-Gly-mxe intein-chitin-binding domain fusion protein (MW ˜36 kDa) was produced in E. coli, and the cell lysate was loaded onto chitin resin. Azides 1 and 2 were used to induce the on-resin cleavage of the fusion protein. […] The purity of the azido-RNase A (even upon elution from the chitin column) was apparent from SDS-PAGE analysis (FIG. 3A); the integrity of the azido-RNase A was verified by using MALDI-TOF mass spectrometry (FIG. 3B). This procedure produced an overall yield of ˜1 mg of purified azido-RNase A per liter of E. coli culture. […]

[4] = molecular target: T2, ribonuclease inhibitor protein (RI); experiment: RI binding to immobilized RNase A (immunoassay, ellipsometry); details: RI 10 μM, 10 min at 4° C.
Experimental: RI binding to immobilized RNase A. Azido-RNase A (1 μL, 10 μM in 5% DMF/water) was spotted on phosphinothioester-displaying SAMs on a gold chip for 15 minutes at r.t. in an AtmosBag™ filled with Ar(g). The chip was taken out of the bag and rinsed with sodium phosphate buffer (25 mM) at pH 7.5 (2×20 mL) and incubated in the same buffer for 30 min to remove non-specifically bound RNase A. RI (10 μM in sodium phosphate buffer (25 mM) at pH 7.5 containing 10 mM DTT) was overlaid on the chip for 10 min at 4° C. The chip was then rinsed with sodium phosphate buffer (25 mM) at pH 7.5 containing 10 mM DTT (2×20 mL) and incubated in the same buffer for 15 min.
Detection of RI bound to immobilized RNase A. (i) Immunoassay: After RI binding, the chip was overlaid with bovine serum albumin (2.0 mg/mL in sodium phosphate buffer (25 mM) at pH 7.5) for 15 min. The chip was rinsed with sodium phosphate buffer (25 mM) at pH 7.5 (2×20 mL) and subsequently incubated with chicken primary antibody to RI (12.5 μg/mL in sodium phosphate buffer (25 mM) at pH 7.5) for 15 min. […] The chip was scanned with a Genomic Solutions® GeneTac UC4×4 Fluorescence Scanner using a gain of 50. […]

[5] = test system: 6-carboxyfluorescein-dArU(dA)2-6-carboxytetramethylrhodamine; experiment: RNase A activity assay on immobilized RNase A; assay type: biochemical; details: chip overlaid with 10 μM protein, pH 6.0
Experimental: RNase A activity assay on immobilized RNase A. A phosphinothioester chip was overlaid with azido-RNase A (10 μM in 5% DMF/H2O) for 15 min in Ar(g) atmosphere in an AtmosBag™ to immobilize RNase A via Staudinger ligation. The chip was rinsed with sodium phosphate buffer (25 mM) at pH 7.5 (2×20 mL) and then introduced into a vial containing 2-(N-Morpholino)ethanesulfonic acid buffer (0.1 M) at pH 6.0 (22 mL, containing 0.1 M NaCl). A fluorogenic substrate of RNase A, 6-carboxyfluorescein-dArU(dA)2-6-carboxytetramethylrhodamine (10 μl of a 40 μM solution), was introduced into the vial. The vial was placed on a shaker and 2 mL aliquots were withdrawn at various time intervals and the fluorescence measured (λex=493 nm, λem=515 nm). The fluorescence intensity was plotted against time. A phosphinothioester chip was overlaid with wt-RNase A (10 μM in 5% DMF/H2O) and rinsed with sodium phosphate buffer (25 mM) at pH 7.5 (2×20 mL) and a similar assay was performed. As a negative control, a similar assay was performed on a phosphinothioester chip which was not overlaid with RNase A. The percentage of the fluorescent substrate cleaved at various time intervals were subtracted from the corresponding values for the negative control to generate the graph in FIG. 8.

Molecule | rate constants (k2 and k1) for thioester cleavage [1] | stability on storage [2] | efficiency of cleaving the protein-intein thioester [3] | RI binding to chip incubated with the protein [4] | enzymatic activity of chip incubated with the protein (increase of fluorescence intensity) [5]
CF3CO2H.H2NNHCH2CH2CH2CONHCH2CH2N3 [azide 2] | much lower than those of methylhydrazine | unstable | – | – | –
[N-]=[N+]=NCCNC(=O)CNN [azide 1, H2NNHCH2CONHCH2CH2N3] | indistinguishable from those of the α-hydrazino acetyl group | – | much more effective than azide 2 | – | –
B1 | – | – | – | No RI binding was observed | small enzymatic activity
